Test results from patent US11084807B2, “Piperazine derivatives, pharmaceutical compositions and methods of use thereof” (Vidac Pharma Ltd., priority 2016, dated 2021).
Where two headings read alike, the source gives them in different places.

Assays:
Format in all cases: cell-based
[1] = tested on: HCT116 Human colon carcinoma cell-line; assay: XTT cytotoxicity, HCT116 colon carcinoma cells; details: HCT-116, 72 hr
Protocol: (§1) The piperazine-derivatives were prepared as a stock of 50 mM in 100% DMSO (dimethyl sulfoxide). Piperazine-derivatives were added at concentration ranging from 0.03-10 uM for 72 hours. Each experimental point was performed in triplicates. Vehicle (DMSO)-treated cells were used as control. Dilutions were performed in culture medium and DMSO so that the final concentration of DMSO in each well was 0.5%.
(§2) Optical density representing viable cells was determined using the XTT Cell Proliferation Kit assay (sodium 2,3,-bis(2-methoxy-4-nitro-5-sulfophenyl)-5-[(phenylamino)-carbonyl]-2H-tetrazolium inner salt, Biological industries, Beit-Haemek, Israel).
(§3) Percentage of Optical density is directly proportional to the number of living cells in culture. Cytotoxicity (%) was calculated in the following way: [(OD of drug-treated cells-OD of background)/(OD of control cells-OD of background)]×100.
(§4) New piperazine derivatives were tested for cytotoxicity in 4 cancer cell lines:
A) HCT116—Human colon carcinoma cell-line

[2] = tested on: Hela Human cervix adenocarcinoma cell-line; assay: XTT cytotoxicity, Hela cervix adenocarcinoma cells; details: 72 hr
Protocol: as §1, §2, §3, §4
B) Hela—Human cervix adenocarcinoma cell-line

[3] = tested on: H358 Human lung carcinoma cell-line; assay: XTT cytotoxicity, H358 lung carcinoma cells
Protocol: as §1, §2, §3, §4
C) H358—Human lung carcinoma cell-line
New piperazine derivatives (compounds of Formula (IV)) were tested for cytotoxicity in the H358 human lung carcinoma cell line. Table 2 below provides IC50 values for the tested compounds.
New piperazine derivatives (compounds of Formula (V)) were tested for cytotoxicity in the H358 human lung carcinoma cell line. Table 3 below provide IC50 values for the tested compounds.

[4] = tested on: Panc-1 Human pancreatic carcinoma cell-line; assay: XTT cytotoxicity, Panc-1 pancreatic carcinoma cells; details: Panc-1, XTT, 72 hr
Protocol: as §1, with “Piperazine-derivatives were added at concentration ranging from 0.03-10 uM for 72 hours.” left out
as §2, §3, §4
D) Panc-1—Human pancreatic carcinoma cell-line

PC3 prostate cancer line = assay: Cytotoxicity, PC3 prostate cancer cells; details: 25 mM glucose, 1500 cell/well, 10% FCS, 72 hours, read-out: IC50 (μM), prostate cancer cell line (Table 4)
[5] = NCI-H358, H358, XTT, 72 hr (Table 1), read-out: IC50 (XTT, 72 hr) Lung H358
[6] = NCI-H358, H358 lung cancer line, 11.5 mM glucose, 5000 cell/well, 0.5% FCS, 72 hours, read-out: IC50 (μM), lung cancer cell line (Table 2)
[7] = NCI-H358, H358 lung cancer line, 11.5 mM glucose, 5000 cell/well, 0.5% FCS, 72 hours, read-out: IC50 (μM), lung cancer cell line (Table 3)

| SMILES | IC50 [2] [nM] | IC50 [3, 6] [µM] | IC50 [4] [nM] | other results |
| --- | --- | --- | --- | --- |
| O=C(N1CCN(c2ccccc2)CC1)N1c2ccccc2Oc2ccccc21 [Compound 1] | 15 | 0.025 | 10 | IC50 [1]: 10 nM; IC50 [3, 5]: 0.05 µM; IC50 (PC3 prostate cancer line): 0.026 µM |
| O=C(N1CCN(c2c(F)c(F)c(F)c(F)c2F)CC1)N1c2ccccc2Oc2ccccc21 [Compound 2] | 1900 | > 10 | > 30000 |  |
| O=C(C1c2ccccc2Sc2ccccc21)N1CCN(c2ccccc2)CC1 [Compound 3] | 500 | 0.43 | 310 | IC50 [1]: 640 nM; IC50 [3, 5]: 1.35 µM |
| O=C(N1CCN(c2c(F)cccc2F)CC1)N1c2ccccc2Oc2ccccc21 [Compound 5] | 400 | 0.265 | 900 | IC50 [1]: 1080 nM; IC50 [3, 5]: 0.84 µM |
| COc1cccc(N2CCN(C(=O)N3c4ccccc4Oc4ccccc43)CC2)c1 [Compound 11] |  | 0.0047 |  |  |
| COc1ccccc1N1CCN(C(=O)N2c3ccccc3Oc3ccccc32)CC1 [Compound 12] |  | 0.0066 |  |  |
| O=C(N1CCN(c2cc(F)cc(F)c2)CC1)N1c2ccccc2Oc2ccccc21 [Compound 13] |  | 0.0067 |  |  |
| O=C(N1CCN(c2ccc(O)cc2)CC1)N1c2ccccc2Oc2ccccc21 [Compound 14] |  | 0.051 |  |  |
| O=C(N1CCN(c2ccc(F)cc2)CC1)N1c2ccccc2Oc2ccccc21 [Compound 15] |  | 0.24 |  |  |
| O=C(N1CCC(c2ccccc2)CC1)N1c2ccccc2Oc2ccccc21 [Compound 16] |  | 1.37 |  |  |
| O=C(N1CCN(c2ccccc2)CC1)n1c2ccccc2c2ccccc21 [Compound 20] |  |  |  | IC50 [3, 7]: 0.027 µM |
| O=C(N1CCN(c2cc(F)cc(F)c2)CC1)n1c2ccccc2c2ccccc21 [Compound 23] |  |  |  | IC50 [3, 7]: 0.009 µM; IC50 (PC3 prostate cancer line): 0.08 µM |
